Measurements taken from paper PMC6695665, “Interrogating the Essential Bacterial Cell Division Protein FtsQ with Fragments Using Target Immobilized NMR Screening (TINS)” (International Journal of Molecular Sciences, 2019).
Where two headings read alike, the source gives them in different places.

Experiments:
Test in all cases: 1H, […]-HSQC NMR chemical shift perturbation; TINS primary screen (T/R […])
Format in all cases: binding
FtsQ [1] = target: T1, FtsQ (Escherichia coli, UniProt P06136)
T1 construct: soluble periplasmic domain (FtsQp), 15N-labeled, N-terminal tags cleaved by TEV

FtsQ [2] = target: T1, FtsQ; remark: listed apart in the source
FtsQ [3] = target: T1, FtsQ; remark: listed apart in the source

T1 sequence (P06136 50-276): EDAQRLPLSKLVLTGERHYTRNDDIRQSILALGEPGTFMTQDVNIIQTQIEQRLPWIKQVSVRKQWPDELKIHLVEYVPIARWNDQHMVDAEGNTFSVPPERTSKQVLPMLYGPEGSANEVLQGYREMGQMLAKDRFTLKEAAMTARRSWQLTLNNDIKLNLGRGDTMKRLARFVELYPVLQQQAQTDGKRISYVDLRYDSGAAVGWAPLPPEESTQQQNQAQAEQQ

## N[C@@H](Cc1cn(Cc2ccccc2)cn1)C(=O)O [compound 1]
FtsQ [1]
  Kd: > 1000 µM

## C=C1[C@H](O)C[C@@H]2C[C@H]1C2(C)C [compound 2]
FtsQ [2]
  Kd: > 1000 µM

## CN(C)c1nc(=O)n(C2CCCCC2)c(=O)n1C [compound 3]
FtsQ [3]
  Kd: > 1000 µM
